Columns and labels:
[1] = biological target: T1, human RET kinase (Homo sapiens, UniProt P07949); test: RET Kinase Assay (LanthaScreen TR-FRET enzymatic assay); type: biochemical; details: 7 nM RET, 23 μM ATP
T1 construct: purchased Carna 08-159
Outline: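 TR-FRET enzymatic read-out using 23 μM ATP, 3 μM FAM-P2 substrate and 7 nM human RET, after 15-min compound pretreatment at room temperature and a 1 h reaction at 28° C in HEPES pH 7.5 buffer. Percent of DMSO control fitted to nonlinear sigmoid curves for IC50.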

[2] = biological target: T2, BAF3-KIF5B-RET cells (Homo sapiens, UniProt P07949); test: BAF3-KIF5B-RET Cell proliferation assay (CellTiter-Glo, 72 hours); type: cell-based; details: growth inhibition, read-out: BA/F3-KIF5B-RET Cellular activity
T2 construct: fused on or other part: P33176 (Kinesin-1 heavy chain)
Description: Compounds disclosed herein were tested for the inhibition of RET by a cancer cell proliferation assay commonly known as CellTiter-Glo assay. In this assay, a complete media was prepared by adding 10% fetal bovine serum to RPMI-1640 medium (Life technology) for BAF3-FIF5B-RET cells. BAF3-KIF5B-RET cells were added to each of 88 wells of a 96 well plate at a seeding density of 2,000 cells/well/95 μL. The cells were allowed to attach to the plate by incubating at 37° C. for 24 hours. The compound was dissolved in DMSO (SIGMA). A solution of test compound was prepared in complete media by serial dilution to obtain the following concentrations: 20 μM, 6.67 μM, 2.22 μM, 0.74 μM, 0.25 μM, 0.082 μM, 0.027 μM, 0.0091 μM and 0.0030 μM. The test compound solution (5 μL) was added to each of 80 cell-containing wells. The final concentrations of the compound were following: 1 μM, 0.33 μM, 0.11 μM, 0.037 μM, 0.012 μM, 0.0041 μM, 0.0014 μM, 0.00046 μM and 0.00015 μM. The final concentration of DMSO is 0.1%. To the 8 remaining cell-containing wells, only complete media (containing 0.1% DMSO) was added to form a control group in order to measure maximal proliferation. To the remaining 8 empty wells, complete media was added to for a vehicle control group in order to measure background. The plates were incubated at 37° C. for 72 hours. 50 μl of CellTiter-Glo® Reagent was added to each well. Mix contents for 2 minutes on an orbital shaker to induce cell lysis. Incubate at room temperature for 10 minutes to stabilize luminescent signal. Record luminescence on Paradigm. Cell viability (CV %) was calculated relative to vehicle (DMSO) treated control wells. The IC50 was calculated using GraphPad Prism.

T2 sequence (P07949 whole entry, change not shown, the tested form may be a part): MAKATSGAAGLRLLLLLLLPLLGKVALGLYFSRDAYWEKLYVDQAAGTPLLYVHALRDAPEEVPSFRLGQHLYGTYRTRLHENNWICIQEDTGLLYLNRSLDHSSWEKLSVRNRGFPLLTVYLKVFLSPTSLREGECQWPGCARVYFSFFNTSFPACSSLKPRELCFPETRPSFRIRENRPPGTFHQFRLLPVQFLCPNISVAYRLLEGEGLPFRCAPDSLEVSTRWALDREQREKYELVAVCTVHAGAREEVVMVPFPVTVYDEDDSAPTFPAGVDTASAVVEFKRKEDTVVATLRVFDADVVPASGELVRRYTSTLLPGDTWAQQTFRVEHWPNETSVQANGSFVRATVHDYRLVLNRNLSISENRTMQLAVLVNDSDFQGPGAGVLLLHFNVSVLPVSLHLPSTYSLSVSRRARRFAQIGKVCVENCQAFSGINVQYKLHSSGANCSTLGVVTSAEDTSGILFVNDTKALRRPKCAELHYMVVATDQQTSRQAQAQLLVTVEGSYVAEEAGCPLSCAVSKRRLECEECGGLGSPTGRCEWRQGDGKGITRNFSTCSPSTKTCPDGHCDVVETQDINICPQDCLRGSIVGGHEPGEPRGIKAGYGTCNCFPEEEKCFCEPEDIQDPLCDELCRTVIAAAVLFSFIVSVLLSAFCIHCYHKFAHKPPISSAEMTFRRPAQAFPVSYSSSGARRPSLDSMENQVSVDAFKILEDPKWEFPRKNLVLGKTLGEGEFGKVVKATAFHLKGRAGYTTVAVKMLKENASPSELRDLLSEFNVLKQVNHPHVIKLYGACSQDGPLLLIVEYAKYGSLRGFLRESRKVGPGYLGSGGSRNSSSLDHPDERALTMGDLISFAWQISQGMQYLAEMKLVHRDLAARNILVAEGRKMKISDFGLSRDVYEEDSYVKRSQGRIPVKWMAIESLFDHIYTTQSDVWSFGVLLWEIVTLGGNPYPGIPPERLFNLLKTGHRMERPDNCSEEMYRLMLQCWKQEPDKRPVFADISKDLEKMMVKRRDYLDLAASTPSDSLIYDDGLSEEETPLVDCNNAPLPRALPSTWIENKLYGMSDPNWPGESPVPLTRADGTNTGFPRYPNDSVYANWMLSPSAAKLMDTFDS
T1 sequence (P07949 29-1114): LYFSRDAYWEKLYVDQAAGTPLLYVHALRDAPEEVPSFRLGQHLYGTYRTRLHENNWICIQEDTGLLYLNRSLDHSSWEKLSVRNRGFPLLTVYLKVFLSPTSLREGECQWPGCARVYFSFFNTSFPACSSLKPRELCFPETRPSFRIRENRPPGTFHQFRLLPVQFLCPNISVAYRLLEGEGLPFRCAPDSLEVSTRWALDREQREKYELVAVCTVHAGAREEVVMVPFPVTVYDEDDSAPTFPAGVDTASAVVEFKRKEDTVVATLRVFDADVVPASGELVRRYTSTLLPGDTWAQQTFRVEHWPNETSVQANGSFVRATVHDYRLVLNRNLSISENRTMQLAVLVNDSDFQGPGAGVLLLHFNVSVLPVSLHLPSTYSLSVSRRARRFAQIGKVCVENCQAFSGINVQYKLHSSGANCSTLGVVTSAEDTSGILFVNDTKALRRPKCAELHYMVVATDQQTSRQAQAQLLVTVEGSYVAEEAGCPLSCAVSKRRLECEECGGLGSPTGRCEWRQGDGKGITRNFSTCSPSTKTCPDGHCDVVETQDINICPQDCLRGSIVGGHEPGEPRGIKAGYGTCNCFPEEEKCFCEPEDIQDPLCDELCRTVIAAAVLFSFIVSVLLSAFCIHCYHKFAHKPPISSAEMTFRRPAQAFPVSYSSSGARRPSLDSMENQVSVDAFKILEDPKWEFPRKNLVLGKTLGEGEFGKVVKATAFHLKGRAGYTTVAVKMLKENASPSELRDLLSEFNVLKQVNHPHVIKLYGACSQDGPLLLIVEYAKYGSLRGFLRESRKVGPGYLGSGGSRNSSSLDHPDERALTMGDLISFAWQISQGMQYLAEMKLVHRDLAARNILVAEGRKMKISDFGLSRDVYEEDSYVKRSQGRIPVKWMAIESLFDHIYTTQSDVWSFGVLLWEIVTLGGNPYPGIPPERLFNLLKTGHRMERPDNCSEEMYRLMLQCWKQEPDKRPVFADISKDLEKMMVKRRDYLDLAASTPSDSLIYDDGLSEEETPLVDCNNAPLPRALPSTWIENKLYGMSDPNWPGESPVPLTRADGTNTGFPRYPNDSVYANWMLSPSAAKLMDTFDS

Row | IC50 [1] [nM] | GI50 [2] [nM] | SMILES
1 | 10 to 50 | > 100 | CC(C)(O)COc1cc(-c2cnc(N3C4CC5CC3CC(O)(C5)C4)cn2)c2c(C#N)cnn2c1 [Example 157, 4-(5-((1R,3S,5s,7s)-5-hydroxy-2-azaadamantan-2-yl)pyrazin-2-yl)-6-(2-hydroxy-2-methylpropoxy)pyrazolo[1,5-a]pyridine-3-carbonitrile]
2 | ≤ 10 | ≤ 10 | Cn1cc(-c2cc(-c3cnc(N4C5CC6CC4CC(NC(=O)OC(C)(C)C)(C6)C5)cn3)c3c(C#N)cnn3c2)cn1 [Example 109, tert-butyl ((1R,3S,5s,7s)-2-(5-(3-cyano-6-(1-methyl-1H-pyrazol-4-yl)pyrazolo[1,5-a]pyridin-4-yl)pyrazin-2-yl)-2-azaadamantan-5-yl)carbamate]
3 | 10 to 50 | > 100 | CC(C)(O)COc1cc(-c2cnc(N3C4CC5CC3CC(NC=O)(C5)C4)cn2)c2c(C#N)cnn2c1 [Example 160, N-((1R,3S,5s,7s)-2-(5-(3-cyano-6-(2-hydroxy-2-methylpropoxy)pyrazolo[1,5-a]pyridin-4-yl)pyrazin-2-yl)-2-azaadamantan-5-yl)formamide]
4 | ≤ 10 | 10 to 50 | Cn1cc(-c2cc(-c3cnc(N4C5CC6CC4CC(N)(C6)C5)cn3)c3c(C#N)cnn3c2)cn1 [Example 108, 4-(5-((1R,3S,5s,7s)-5-amino-2-azaadamantan-2-yl)pyrazin-2-yl)-6-(1-methyl-1H-pyrazol-4-yl)pyrazolo[1,5-a]pyridine-3-carbonitrile]
5 | ≤ 10 | > 100 | CCOc1cc(-c2cnc(N3C4CC5CC3CC(NC=O)(C5)C4)cn2)c2c(C#N)cnn2c1 [Example 161, N-((1R,3S,5s,7s)-2-(5-(3-cyano-6-ethoxypyrazolo[1,5-a]pyridin-4-yl)pyrazin-2-yl)-2-azaadamantan-5-yl)formamide]
6 | 10 to 50 | > 100 | CCOc1cc(-c2cnc(N3C4CC5CC3CC(N)(C5)C4)cn2)c2c(C#N)cnn2c1 [Example 163, 4-(5-((1R,3S,5s,7s)-5-amino-2-azaadamantan-2-yl)pyrazin-2-yl)-6-ethoxypyrazolo[1,5-a]pyridine-3-carbonitrile]

Continued, compound first:

Row | SMILES | IC50 [1] [nM] | GI50 [2] [nM]
7 | COc1ccc(NC(=O)[C@]2(C)C[C@H]3CN(c4ccc(-c5cc(-c6ccn(C)n6)cn6ncc(C#N)c56)cn4)C[C@H]3C2)cn1 [Example 113, (3aR,5s,6aS)-2-(5-(3-cyano-6-(1-methyl-1H-pyrazol-3-yl)pyrazolo[1,5-a]pyridin-4-yl)pyridin-2-yl)-N-(6-methoxypyridin-3-yl)-5-methyloctahydrocyclopenta[c]pyrrole-5-carboxamide] | ≤ 10 | ≤ 10
8 | COc1ccc(C(=O)NC23CC4CC(C2)N(c2cnc(-c5cc(-c6cnn(C)c6)cn6ncc(C#N)c56)cn2)C(C4)C3)cn1 [Example 165, N-((1R,3S,5s,7s)-2-(5-(3-cyano-6-(1-methyl-1H-pyrazol-4-yl)pyrazolo[1,5-a]pyridin-4-yl)pyrazin-2-yl)-2-azaadamantan-5-yl)-6-methoxynicotinamide] | ≤ 10 | ≤ 10
9 | Cn1cc(-c2cc(-c3ccc(N4C[C@@H]5C[C@@](O)(Cc6ccccn6)C[C@@H]5C4)nc3)c3c(C#N)cnn3c2)cn1 [Example 158, 4-(6-((3aR,5r,6aS)-5-hydroxy-5-(pyridin-2-ylmethyl)hexahydrocyclopenta[c]pyrrol-2(1H)-yl)pyridin-3-yl)-6-(1-methyl-1H-pyrazol-4-yl)pyrazolo[1,5-a]pyridine-3-carbonitrile] | ≤ 10 | 10 to 50
10 | Cn1cc(-c2cc(-c3ccc(N4C[C@@H]5C[C@](C)(NC(=O)c6ncccc6Cl)C[C@@H]5C4)nc3)c3c(C#N)cnn3c2)cn1 [Example 173, 3-chloro-N-((3aR,5r,6aS)-2-(5-(3-cyano-6-(1-methyl-1H-pyrazol-4-yl)pyrazolo[1,5-a]pyridin-4-yl)pyridin-2-yl)-5-methyloctahydrocyclopenta[c]pyrrol-5-yl)picolinamide] | ≤ 10 | ≤ 10
11 | COc1cccnc1C(=O)NC[C@@H]1[C@H]2CN(c3ccc(-c4cc(-c5cnn(C)c5)cn5ncc(C#N)c45)cn3)C[C@@H]12 [Example 191, N-(((1R,5S,6s)-3-(5-(3-cyano-6-(1-methyl-1H-pyrazol-4-yl)pyrazolo[1,5-a]pyridin-4-yl)pyridin-2-yl)-3-azabicyclo[3.1.0]hexan-6-yl)methyl)-3-methoxypicolinamide] | ≤ 10 | ≤ 10
12 | COc1cc(C(=O)N[C@]2(C)C[C@H]3CN(c4cnc(-c5cc(-c6cnn(C)c6)cn6ncc(C#N)c56)cn4)C[C@H]3C2)ccn1 [Example 150, N-((3aR,5s,6aS)-2-(5-(3-cyano-6-(1-methyl-1H-pyrazol-4-yl)pyrazolo[1,5-a]pyridin-4-yl)pyrazin-2-yl)-5-methyloctahydrocyclopenta[c]pyrrol-5-yl)-2-methoxyisonicotinamide] | ≤ 10 | ≤ 10
13 | COc1ccc(CN2[C@@H]3CC[C@H]2[C@H]2CN(c4ccc(-c5cc(OCC(C)(C)O)cn6ncc(C#N)c56)cn4)C[C@H]23)cn1 [Example 117, 6-(2-hydroxy-2-methylpropoxy)-4-(6-((3aR,4S,7R,7aS)-8-((6-methoxypyridin-3-yl)methyl)hexahydro-1H-4,7-epiminoisoindol-2(3H)-yl)pyridin-3-yl)pyrazolo[1,5-a]pyridine-3-carbonitrile] | 10 to 50 | > 100
14 | CC(C)(O)COc1cc(-c2ccc(N3C[C@@H]4[C@H](C3)[C@H]4C(C)(C)NC(=O)c3ncccc3Cl)nc2)c2c(C#N)cnn2c1 [Example 129, 3-chloro-N-(2-((1R,5S,6r)-3-(5-(3-cyano-6-(2-hydroxy-2-methylpropoxy)pyrazolo[1,5-a]pyridin-4-yl)pyridin-2-yl)-3-azabicyclo[3.1.0]hexan-6-yl)propan-2-yl)picolinamide] | 10 to 50 | 50 to 100
15 | COc1cncc(C(=O)N[C@]2(C)C[C@H]3CN(c4cnc(-c5cc(-c6cnn(C)c6)cn6ncc(C#N)c56)cn4)C[C@H]3C2)c1 [Example 148, N-((3aR,5s,6aS)-2-(5-(3-cyano-6-(1-methyl-1H-pyrazol-4-yl)pyrazolo[1,5-a]pyridin-4-yl)pyrazin-2-yl)-5-methyloctahydrocyclopenta[c]pyrrol-5-yl)-5-methoxynicotinamide] | ≤ 10 | ≤ 10
16 | COc1ccc(C(C)N2C[C@H]3CN(c4cnc(-c5cc(OCC(C)(C)O)cn6ncc(C#N)c56)cn4)C[C@H]3C2)cn1 (stereo partly drawn) [Example 176, 6-(2-hydroxy-2-methylpropoxy)-4-(5-((3aR,6aS)-5-(1-(6-methoxypyridin-3-yl)ethyl)hexahydropyrrolo[3,4-c]pyrrol-2(1H)-yl)pyrazin-2-yl)pyrazolo[1,5-a]pyridine-3-carbonitrile] | 50 to 100 | > 100
17 | Cn1cc(-c2cc(-c3cnc(N4C[C@@H]5C[C@@](C)(NC(=O)c6ccnc(C(F)(F)F)c6)C[C@@H]5C4)cn3)c3c(C#N)cnn3c2)cn1 [Example 147, N-((3aR,5s,6aS)-2-(5-(3-cyano-6-(1-methyl-1H-pyrazol-4-yl)pyrazolo[1,5-a]pyridin-4-yl)pyrazin-2-yl)-5-methyloctahydrocyclopenta[c]pyrrol-5-yl)-2-(trifluoromethyl)isonicotinamide] | ≤ 10 | 10 to 50
18 | COc1ccc(CC(=O)N[C@H]2[C@@H]3CN(c4ccc(-c5cc(OCC(C)(C)O)cn6ncc(C#N)c56)cn4)C[C@@H]32)cn1 [Example 190, N-((1R,5S,6s)-3-(5-(3-cyano-6-(2-hydroxy-2-methylpropoxy)pyrazolo[1,5-a]pyridin-4-yl)pyridin-2-yl)-3-azabicyclo[3.1.0]hexan-6-yl)-2-(6-methoxypyridin-3-yl)acetamide] | 50 to 100 | > 100
19 | COc1ccc(NC(=O)C23CC4CC(C2)N(c2ccc(-c5cc(-c6cnn(C)c6)cn6ncc(C#N)c56)cn2)C(C4)C3)cn1 [Example 189, (1R,3S,5s,7s)-2-(5-(3-cyano-6-(1-methyl-1H-pyrazol-4-yl)pyrazolo[1,5-a]pyridin-4-yl)pyridin-2-yl)-N-(6-methoxypyridin-3-yl)-2-azaadamantane-5-carboxamide] | ≤ 10 | ≤ 10
20 | COc1ccc(C(=O)N[C@@H]2C[C@@H]3CN(c4cnc(-c5cc(OCC(C)(C)O)cn6ncc(C#N)c56)cn4)C[C@@H]3C2)cn1 [Example 110, N-((3aR,5r,6aS)-2-(5-(3-cyano-6-(2-hydroxy-2-methylpropoxy)pyrazolo[1,5-a]pyridin-4-yl)pyrazin-2-yl)octahydrocyclopenta[c]pyrrol-5-yl)-6-methoxynicotinamide] | 50 to 100 | > 100

— patent US20220220128A1, “HETEROCYCLIC COMPOUNDS AS KINASE INHIBITORS, COMPOSITIONS COMPRISING THE HETEROCYCLIC COMPOUND, AND METHODS OF USE THEREOF” (JS Innopharm (Shanghai) Ltd, priority 2019, published 2022)
